Experimental data from patent US8445522B2, “Substituted 2-(4-pyridyl)benzoxazoles, and compositions thereof, for use in arthropod pest control” (Sumitomo Chemical Company, Limited, priority 2009, dated 2013).
Read-outs that look alike come from different tables or passages of the source.

Legend:
Format in all cases: in vivo
rice brown planthopper [1] = assay: Test Example 5: test diluent scattered on rice plant seedling, rice brown planthopper released; settings: Nilaparvata lugens, 144 h, read-out: Control value
Method: The formulations were diluted with water so that the concentration of the active ingredient became 500 ppm and thus test diluents were prepared. On the other hand, to a rice plant seedling (two weeks after seeding, second leaf development stage) planted in a plastic cup, any one of the diluents (10 ml) was scattered. After the drug solution scattered on the rice plant was dried, 30 first-instars of rice brown planthopper were released on the rice plant, which was kept in the green house at 25° C. for six days. Thereafter, the number of rice brown planthopper parasitic on rice plant was counted and the control value was calculated by the following equation. Control value(%)={1−(Cb×Tai)/(Cai×Tb)}×100 wherein each character represents the following meaning: Cb: number of insects in non-treated section before treatment Cai: number of insects in non-treated section during observation Tb: number of insects in treated section before treatment Tai: number of insects in treated section during observation

rice brown planthopper [2] = assay: Test Example 6: plant foot irrigation of rice plant seedling, rice brown planthopper released after seven days; settings: Nilaparvata lugens, 144 h, read-out: Control value
Method: The formulations were diluted with water so that the concentration of the active ingredient became 500 ppm and thus test diluents were prepared. On the other hand, a plant foot of rice plant seedling (two weeks after seeding, second leaf development stage) planted in a plastic cup was irrigated with any one of diluents (5 ml). The seedling was kept in a green house of 25° C. for seven days. Thirty first-instars of rice brown planthopper were released to the seedling, which was kept in the green house at 25 C for six days. Thereafter, the number of survived rice brown planthopper parasitic on rice plant leaves was counted, and the control value was calculated by the following equation. Control value(%)={1−(Cb×Tai)/(Cai×Tb)}×100 wherein each character represents the following meaning: Cb: number of insects in non-treated section before treatment Cai: number of insects in non-treated section during observation Tb: number of insects in treated section before treatment Tai: number of insects in treated section during observation

tobacco whitefly = assay: Test Example 4: test diluent scattered on tomato seedling with hatched tobacco whitefly larvae; settings: 168 h, read-out: Control value
Method: The formulations were diluted with water so that the concentration of the active ingredient became 500 ppm and thus test diluents were prepared. On the other hand, by releasing tobacco whitefly imagos to a tomato seedling planted in a plastic cup to allow them to lay eggs for about 24 hours. The tomato seedling was kept in a green house for eight days. At the stage in which larvae hatched from the laid eggs, any of the test diluents was scattered at the rate of 10 ml/cup. The tomato seedling was kept in the greenhouse at 25° C. for seven days. The number of survived larvae on tomato leaves was counted, and the control value was calculated by the following equation. Control value(%)={1−(Cb×Tai)/(Cai×Tb)}×100 wherein each character represents the following meaning: Cb: number of insects in non-treated section before treatment Cai: number of insects in non-treated section during observation Tb: number of insects in treated section before treatment Tai: number of insects in treated section during observation

[3] = test system: cotton aphids (Aphis gossypii Glover); assay: Test Example 1: test diluent scattered on cucumber seedling inoculated with cotton aphids; settings: 120 h, read-out: Control value
Method: The formulations were diluted with water so that the concentration of the active ingredient became 500 ppm and thus test diluents were prepared. On the other hand, a cucumber seedling (second true leaf development stage) planted in a plastic cup was inoculated with about 30 cotton aphids (Aphis gossypii Glover) and allowed to stand for one day. To the seedling, any one of the diluents (10 ml) was scattered. Five days after the scattering, the number of survived cotton aphids parasitic on the cucumber leaves was counted, and the control value was calculated by the following equation. Control value(%)={1−(Cb×Tai)/(Cai×Tb)}×100 wherein each character represents the following meaning: Cb: the number of insects in non-treated section before treatment Cai: the number of insects in non-treated section during observation Tb: the number of insects in treated section before treatment Tai: the number of insects in treated section during observation

halymorpha halys = assay: Test Example 7: treated tissue paper with budding soybeans, halymorpha halys mortality; settings: 168 h
Method: Formulations were prepared by the method described in Formulation Example 1 with respect to each of the active compound 13, the active compound 15, the active compound 18, the active compound 35, the active compound 37, the active compound 44, the active compound 65, the active compound 68 and the active compound 82. The formulations were diluted with water so that the concentration of the active ingredient became 100 ppm and thus test diluents were prepared.
On the other hand, a tissue paper placed in an aluminum cup was irrigated with any one of the above-mentioned diluents (5 ml). The tissue paper was placed in a polyethylene cup together with three budding soybeans. In the polyethylene cup, ten halymorpha halys were released, and the polyethylene cup was lidded by a polyethylene lid. Seven days after the releasing of the insects, the number of survived insects was counted, and the mortality was calculated by the following equation. Mortality(%)=(number of dead insects/number of insects to be tested)×100

cotton aphids [4] = assay: Test Example 2: plant foot irrigation of cucumber seedling in urethane mat, cotton aphids inoculated one day after treatment; settings: 168 h, read-out: Control value
Method: (§1) The formulations were diluted with water so that the concentration of the active ingredient became 500 ppm and thus test diluents were prepared. On the other hand, a plant foot of cucumber seedling (second true leaf development stage) planted in a urethane mat was irrigated with any one of diluents (5 ml). One day after the treatment, the cucumber leaves were inoculated with 30 cotton aphids (all stages). Further seven days after, the number of survived cotton aphids parasitic on the cucumber leaves was counted, and the control value was calculated by the following equation. Control value(%)={1−(Cb×Tai)/(Cai×Tb)}×100 wherein each character represents the following meaning: Cb: number of insects in non-treated section before treatment Cai: number of insects in non-treated section during observation Tb: number of insects in treated section before treatment Tai: number of insects in treated section during observation

cotton aphids [5] = assay: Test Example 3: plant foot irrigation of cucumber seedling in plastic cup, cotton aphids inoculated after seven days; settings: 144 h, read-out: Control value
Method: as §1, with “plastic cup” for “urethane mat”, “The seedling was kept in a green house of 25° C. for seven days. The” for “One day after the treatment, the”, “stages) and kept in the green house for further six days. Thereafter,” for “stages). Further seven days after,”

cotton aphids [6] = assay: Test Example 8 and Comparative Test Example: 200 ppm diluent scattered on cucumber seedling inoculated with cotton aphids; settings: 200 ppm active ingredient, 10 ml scattered on cucumber seedling, counted five days after scattering
[7] = 500 ppm, 5 ml plant foot irrigation of rice seedling, first-instars released after seven days, counted six days after
[8] = 500 ppm, 10 ml/cup scattered on tomato seedling at larvae stage, counted after seven days at 25° C.
[9] = 500 ppm, 5 ml plant foot irrigation, urethane mat, aphids inoculated one day after treatment, counted seven days after
[10] = 500 ppm, 5 ml plant foot irrigation, plastic cup, aphids inoculated after seven days at 25° C., counted six days after
[11] = 500 ppm, 10 ml scattered on rice plant seedling, 30 first-instars released, counted after six days at 25° C.
[12] = 100 ppm, 5 ml on tissue paper with budding soybeans, ten insects, counted seven days after releasing, read-out: Mortality

## CCc1cnccc1-c1nc2cc(C(F)(F)F)ccc2o1 [active compound 35, 2-(3-ethylpyridin-4-yl)-5-(trifluoromethyl)benzoxazole]
Rice brown planthopper [1]
  pest or weed control at 500 ppm: ≥ 90%
Rice brown planthopper [2]
  pest or weed control at 500 ppm: ≥ 90%
Tobacco whitefly
  pest or weed control at 500 ppm: ≥ 90%
[3]
  pest or weed control at 500 ppm: ≥ 90%
Halymorpha halys
  mortality at 100 ppm: ≥ 80%
Cotton aphids [4]
  pest or weed control at 500 ppm: ≥ 90%

## FC(F)(F)c1ccc2oc(-c3ccncc3C(F)(F)F)nc2c1 [active compound 125, 5-trifluoromethyl-2-[3-(trifluoromethyl)pyridin-4-yl]-benzoxazole]
Rice brown planthopper [2]; [7]
  pest or weed control at 500 ppm: ≥ 90%
Tobacco whitefly; [8]
  pest or weed control at 500 ppm: ≥ 90%
[3]; 500 ppm active ingredient, 10 ml scattered on cucumber seedling, counted five days after scattering
  pest or weed control at 500 ppm: ≥ 90%
Cotton aphids [4]; [9]
  pest or weed control at 500 ppm: ≥ 90%
Cotton aphids [5]; [10]
  pest or weed control at 500 ppm: ≥ 90%

## FC(F)(F)C(F)(c1ccc2oc(-c3ccncc3Cl)nc2c1)C(F)(F)F [active compound 68, 2-(3-chloropyridin-4-yl)-5-(heptafluoroisopropyl)benzoxazole]
Rice brown planthopper [1]; [11]
  pest or weed control at 500 ppm: ≥ 90%
Halymorpha halys; [12]
  mortality at 100 ppm: ≥ 80%

## FC(F)(F)C(F)(F)c1ccc2oc(-c3ccncc3)nc2c1 [active compound 65, 5-(pentafluoroethyl)-2-(pyridin-4-yl)-benzoxazole]
Halymorpha halys; [12]
  mortality at 100 ppm: ≥ 80%

## FC(F)(F)c1ccc2nc(-c3ccncc3)oc2c1 [active compound 15, 2-(pyridin-4-yl)-6-(trifluoromethyl)benzoxazole]
Halymorpha halys; [12]
  mortality at 100 ppm: ≥ 80%

## FC(F)(F)c1ccc2oc(-c3ccncc3Cl)nc2c1 [active compound 18, 2-(3-chloropyridin-4-yl)-5-(trifluoromethyl)benzoxazole]
Rice brown planthopper [2]
  pest or weed control at 500 ppm: ≥ 90%
Halymorpha halys
  mortality at 100 ppm: ≥ 80%
Cotton aphids [4]
  pest or weed control at 500 ppm: ≥ 90%

## FC(F)(F)c1ccc2oc(-c3ccncc3-n3cccn3)nc2c1 [active compound 58, 2-[3-(pyrazole-1-yl)pyridin-4-yl]-5-(trifluoromethyl)benzoxazole]
Rice brown planthopper [1]; [11]
  pest or weed control at 500 ppm: ≥ 90%
Rice brown planthopper [2]; [7]
  pest or weed control at 500 ppm: ≥ 90%
Cotton aphids [4]; [9]
  pest or weed control at 500 ppm: ≥ 90%
Cotton aphids [5]; [10]
  pest or weed control at 500 ppm: ≥ 90%

## FC(F)(F)c1ccc2oc(-c3ccncc3-n3cncn3)nc2c1 [active compound 63, 2-[3-(1,2,4-triazole-1-yl)pyridin-4-yl]-5-(trifluoromethyl)benzoxazole]
Tobacco whitefly; [8]
  pest or weed control at 500 ppm: ≥ 90%
Cotton aphids [4]; [9]
  pest or weed control at 500 ppm: ≥ 90%
Cotton aphids [5]; [10]
  pest or weed control at 500 ppm: ≥ 90%

## COc1cnccc1-c1nc2cc(C(F)(F)F)ccc2o1 [active compound 37, 2-(3-methoxypyridin-4-yl)-5-(trifluoromethyl)benzoxazole]
Rice brown planthopper [2]
  pest or weed control at 500 ppm: ≥ 90%
Tobacco whitefly
  pest or weed control at 500 ppm: ≥ 90%
[3]
  pest or weed control at 500 ppm: ≥ 90%
Halymorpha halys
  mortality at 100 ppm: ≥ 80%
Cotton aphids [4]
  pest or weed control at 500 ppm: ≥ 90%
Cotton aphids [5]
  pest or weed control at 500 ppm: ≥ 90%

## CC(C)(C)Sc1cnccc1-c1nc2cc(C(F)(F)F)ccc2o1 [active compound 44, 2-(3-tert-butylthiopyridin-4-yl)-5-(trifluoromethyl)benzoxazole]
Rice brown planthopper [2]
  pest or weed control at 500 ppm: ≥ 90%
Halymorpha halys
  mortality at 100 ppm: ≥ 80%

## c1ccc2oc(-c3ccncc3)nc2c1 [comparative compound (B)]
Cotton aphids [6]
  Control value: less than 30%

## FC(F)(F)c1ccc2oc(-c3ccncc3)nc2c1 [active compound 13, 2-(pyridin-4-yl)-5-(trifluoromethyl)benzoxazole]
Halymorpha halys
  mortality at 100 ppm: ≥ 80%
Cotton aphids [5]
  pest or weed control at 500 ppm: ≥ 90%

## [O-][n+]1ccc(-c2nc3cc(C(F)(F)F)ccc3o2)cc1 [active compound 14, 4-[5-(trifluoromethyl)benzoxazole-2-yl]pyridine N-oxide]
Rice brown planthopper [2]; [7]
  pest or weed control at 500 ppm: ≥ 90%
Cotton aphids [4]; [9]
  pest or weed control at 500 ppm: ≥ 90%
Cotton aphids [5]; [10]
  pest or weed control at 500 ppm: ≥ 90%

## [O-][n+]1ccc(-c2nc3cc(C(F)(F)F)ccc3o2)c(I)c1 [active compound 30, 3-iode-4-[5-(trifluoromethyl)benzoxazole-2-yl]pyridine N-oxide]
Rice brown planthopper [2]; [7]
  pest or weed control at 500 ppm: ≥ 90%
Cotton aphids [4]; [9]
  pest or weed control at 500 ppm: ≥ 90%
Cotton aphids [5]; [10]
  pest or weed control at 500 ppm: ≥ 90%

## CC(=O)Nc1cnccc1-c1nc2cc(C(F)(F)F)ccc2o1 [active compound 82, N-[4-(5-trifluoromethylbenzoxazole-2-yl)pyridin-3-yl]acetamide]
Halymorpha halys; [12]
  mortality at 100 ppm: ≥ 80%
